Data published in patent US8952024B2, “Herbicidal pyrimidone derivatives” (E I du Pont de Nemours and Company, priority 2009, dated 2015).
Like-named read-outs stand apart in the source and are kept apart here.

Assays:
Test in all cases: Test B pre-/postemergence plant response
Assay type in all cases: in vivo
[1] = tested on: Italian ryegrass (Lolium multiflorum)
In short: (§1)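 Seeds sown in loam–sand blend were treated preemergence, and plants at 2–18 cm (1- to 4-leaf stage) in peat-based medium were treated postemergence; compounds were formulated in non-phytotoxic solvent with surfactant. After 13–15 days in greenhouse, response was visually rated against controls, 0 (no effect) to 100 (complete control).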

[2] = tested on: Surinam grass (Brachiaria decumbens)
In short: as §1

[3] = tested on: bermudagrass (Cynodon dactylon); conditions: for pest or weed control at 31 g/ha: 31 g ai/ha, scale 0 to 100 (0 no effect, 100 complete control)
In short: as §1

[4] = tested on: blackgrass (Alopecurus myosuroides); conditions: for pest or weed control at 31 g/ha: 31 g ai/ha, scale 0 to 100 (0 no effect, 100 complete control); for pest or weed control at 62 g/ha: 62 g ai/ha
In short: as §1

[5] = tested on: cocklebur (Xanthium strumarium)
In short: as §1

[6] = tested on: corn (Zea mays); conditions: for Corn plant response rating (crop injury, 0 = no effect, 100 = complete kill) at 31 g/ha: 31 g ai/ha, scale 0 to 100 (0 no effect, 100 complete control)
In short: as §1

[7] = tested on: downy bromegrass (Bromus tectorum); conditions: for pest or weed control at 31 g/ha: 31 g ai/ha, scale 0 to 100 (0 no effect, 100 complete control); for pest or weed control at 62 g/ha: 62 g ai/ha
In short: as §1

[8] = tested on: green foxtail (Setaria viridis); conditions: for pest or weed control at 31 g/ha: 31 g ai/ha, scale 0 to 100 (0 no effect, 100 complete control)
In short: as §1

[9] = Preemergence, 125 g ai/ha, 0 to 100 scale
[10] = Postemergence, 250 g ai/ha, scale 0 to 100

Cc1c(F)cccc1-n1c(-c2ccccc2)ncc(C(=O)C2=C(O)CCCC2=O)c1=O [Compound 47, 3-(3-fluoro-2-methylphenyl)-5-[(2-hydroxy-6-oxo-1-cyclohexen-1-yl)carbonyl]-2-phenyl-4(3H)-pyrimidinone]
pest or weed control at 62 g/ha ([1]; Lolium multiflorum, post-emergence, Postemergence, 62 g ai/ha, scale 0 (no effect) to 100 (complete control), 13 to 15 days, read-out: Plant response rating, Ryegrass, Italian): 30%
pest or weed control at 125 g/ha ([1]; Lolium multiflorum, post-emergence, Postemergence, 125 g ai/ha, visual rating after 13 to 15 days, scale 0 (no effect) to 100 (complete control)): 30%
pest or weed control at 250 g/ha ([1]; Lolium multiflorum, pre-emergence, 250 g ai/ha, Preemergence, 0 to 100 scale, read-out: Plant response rating, Ryegrass, Italian): 0%
pest or weed control at 31 g/ha ([1]; Lolium multiflorum, pre-emergence, Preemergence, 31 g ai/ha, scale 0 to 100 (0 no effect, 100 complete control), read-out: Plant response rating, Ryegrass, Italian): 0%
Ryegrass, Italian plant response rating [1, 9]: 0
Surinam Grass plant response rating [2, 9]: 100
pest or weed control at 62 g/ha ([2]; Urochloa decumbens, post-emergence, Postemergence, 62 g ai/ha, scale 0 (no effect) to 100 (complete control), 13 to 15 days, read-out: Plant response rating, Surinam Grass): 95%
pest or weed control at 125 g/ha ([2]; Urochloa decumbens, post-emergence, Postemergence, 125 g ai/ha, visual rating after 13 to 15 days, scale 0 (no effect) to 100 (complete control)): 98%
pest or weed control at 250 g/ha ([2]; Urochloa decumbens, pre-emergence, 250 g ai/ha, Preemergence, 0 to 100 scale, read-out: Plant response rating, Surinam Grass): 100%
pest or weed control at 31 g/ha ([2]; Urochloa decumbens, pre-emergence, Preemergence, 31 g ai/ha, scale 0 to 100 (0 no effect, 100 complete control), read-out: Plant response rating, Surinam Grass): 85%
pest or weed control at 31 g/ha ([3]; Cynodon dactylon, post-emergence, Postemergence, read-out: Plant response rating, Bermudagrass): 85%
pest or weed control at 125 g/ha ([3]; Cynodon dactylon, post-emergence, Postemergence, 125 g ai/ha, visual rating after 13 to 15 days, scale 0 (no effect) to 100 (complete control)): 98%
pest or weed control at 250 g/ha ([3]; Cynodon dactylon, pre-emergence, 250 g ai/ha, Preemergence, 0 to 100 scale, read-out: Plant response rating, Bermudagrass): 100%
pest or weed control at 31 g/ha ([3]; Cynodon dactylon, pre-emergence, Preemergence, read-out: Plant response rating, Bermudagrass): 100%
pest or weed control at 62 g/ha ([3]; Cynodon dactylon, pre-emergence, Preemergence, 62 g ai/ha, scale 0 to 100, 0 no effect, 100 complete control, read-out: Plant response rating, Bermudagrass): 100%
Bermudagrass plant response rating [3, 9]: 100
pest or weed control at 31 g/ha ([4]; Alopecurus myosuroides, post-emergence, 360 h, Postemergence, read-out: Plant response rating, Blackgrass): 5%
pest or weed control at 62 g/ha ([4]; Alopecurus myosuroides, post-emergence, 360 h, Postemergence, scale 0 (no effect) to 100 (complete control), 13 to 15 days, read-out: Plant response rating, Blackgrass): 20%
pest or weed control at 125 g/ha ([4]; Alopecurus myosuroides, post-emergence, 360 h, Postemergence, 125 g ai/ha, visual rating after 13 to 15 days, scale 0 (no effect) to 100 (complete control)): 25%
pest or weed control at 250 g/ha ([4]; Alopecurus myosuroides, pre-emergence, 360 h, 250 g ai/ha, Preemergence, 0 to 100 scale, read-out: Plant response rating, Blackgrass): 5%
pest or weed control at 31 g/ha ([4]; Alopecurus myosuroides, pre-emergence, 360 h, Preemergence, read-out: Plant response rating, Blackgrass): 0%
pest or weed control at 62 g/ha ([4]; Alopecurus myosuroides, pre-emergence, 360 h, Preemergence, scale 0 to 100, 0 no effect, 100 complete control, read-out: Plant response rating, Blackgrass): 5%
Blackgrass plant response rating [4, 10]: 30
Blackgrass plant response rating [4, 9]: 5
Cocklebur plant response rating [5, 10]: 100
pest or weed control at 31 g/ha ([5]; Xanthium strumarium, post-emergence, Postemergence, 31 g ai/ha, scale 0 to 100 (0 no effect, 100 complete control), read-out: Plant response rating, Cocklebur): 95%
pest or weed control at 125 g/ha ([5]; Xanthium strumarium, post-emergence, Postemergence, 125 g ai/ha, visual rating after 13 to 15 days, scale 0 (no effect) to 100 (complete control)): 95%
pest or weed control at 62 g/ha ([5]; Xanthium strumarium, pre-emergence, Preemergence, 62 g ai/ha, scale 0 to 100, 0 no effect, 100 complete control, read-out: Plant response rating, Cocklebur): 0%
Corn plant response rating [6, 9]: 0
Corn plant response rating (crop injury, 0 = no effect, 100 = complete kill) at 31 g/ha ([6]; Zea mays, post-emergence, Postemergence): 65%
Corn plant response rating (crop injury, 0 = no effect, 100 = complete kill) at 125 g/ha ([6]; Zea mays, post-emergence, Postemergence, 125 g ai/ha, visual rating after 13 to 15 days, scale 0 (no effect) to 100 (complete control)): 80%
Corn plant response rating (crop injury, 0 = no effect, 100 = complete kill) at 250 g/ha ([6]; Zea mays, pre-emergence, 250 g ai/ha, Preemergence, 0 to 100 scale): 0%
Corn plant response rating (crop injury, 0 = no effect, 100 = complete kill) at 31 g/ha ([6]; Zea mays, pre-emergence, Preemergence): 0%
Corn plant response rating (crop injury, 0 = no effect, 100 = complete kill) at 62 g/ha ([6]; Zea mays, pre-emergence, Preemergence, 62 g ai/ha, scale 0 to 100, 0 no effect, 100 complete control): 0%
pest or weed control at 31 g/ha ([7]; Bromus tectorum, post-emergence, Postemergence, read-out: Plant response rating, Bromegrass, Downy): 35%
pest or weed control at 62 g/ha ([7]; Bromus tectorum, post-emergence, Postemergence, scale 0 (no effect) to 100 (complete control), 13 to 15 days, read-out: Plant response rating, Bromegrass, Downy): 40%
pest or weed control at 125 g/ha ([7]; Bromus tectorum, post-emergence, Postemergence, 125 g ai/ha, visual rating after 13 to 15 days, scale 0 (no effect) to 100 (complete control)): 50%
pest or weed control at 250 g/ha ([7]; Bromus tectorum, pre-emergence, 250 g ai/ha, Preemergence, 0 to 100 scale, read-out: Plant response rating, Bromegrass, Downy): 10%
pest or weed control at 31 g/ha ([7]; Bromus tectorum, pre-emergence, Preemergence, read-out: Plant response rating, Bromegrass, Downy): 0%
pest or weed control at 62 g/ha ([7]; Bromus tectorum, pre-emergence, Preemergence, scale 0 to 100, 0 no effect, 100 complete control, read-out: Plant response rating, Bromegrass, Downy): 5%
Bromegrass, Downy plant response rating [7, 10]: 55
Bromegrass, Downy plant response rating [7, 9]: 5
Foxtail, Green plant response rating [8, 10]: 95
Foxtail, Green plant response rating [8, 9]: 98
pest or weed control at 31 g/ha ([8]; Setaria viridis, post-emergence, Postemergence, read-out: Plant response rating, Foxtail, Green): 80%
pest or weed control at 62 g/ha ([8]; Setaria viridis, post-emergence, Postemergence, 62 g ai/ha, scale 0 (no effect) to 100 (complete control), 13 to 15 days, read-out: Plant response rating, Foxtail, Green): 90%
pest or weed control at 125 g/ha ([8]; Setaria viridis, post-emergence, Postemergence, 125 g ai/ha, visual rating after 13 to 15 days, scale 0 (no effect) to 100 (complete control)): 95%
pest or weed control at 250 g/ha ([8]; Setaria viridis, pre-emergence, 250 g ai/ha, Preemergence, 0 to 100 scale, read-out: Plant response rating, Foxtail, Green): 98%
pest or weed control at 31 g/ha ([8]; Setaria viridis, pre-emergence, Preemergence, read-out: Plant response rating, Foxtail, Green): 65%
